Experiments:
[1] = molecular target: T1, RXRα-ER(C) (Mus musculus, UniProt P28700, A202E/D171H/D178A/D181Q/G144N/G162A/I142V/INS139MESAKETRY/INS205MKGGIRKDRRGGRMLKHKRQRDDGEGRGEVGSM/K150Y/K170G/K180N/L172N/L183T/L201Y/M203V/N179T/N190K/Q188R/Q198R/R146Y/R169Q/R177P/R187N/R191S/S147A/T167S/T173D/T175M/V168I/Y155W/Y194A/Y197L); experiment: 3ERE-URA3 reporter transactivation in yeast strain PL3 (OMPdecase activity); assay type: cell-based
T1 construct: (a.a. 1 to 467), mouse RXRαdn; expressed in transfected cells; host or cells: Saccharomyces cerevisiae PL3 (multicopy YEp10/YEp90, PGK promoter)
T1 sequence (P28700 with tags, fused parts or gaps INS139MESAKETRY/I142V/G144N/R146Y/S147A/K150Y/Y155W/G162A/T167S/V168I/R169Q/K170G/D171H/L172N/T173D/T175M/R177P/D178A/N179T/K180N/D181Q/L183T/R187N/Q188R/N190K/R191S/Y194A/Y197L/Q198R/L201Y/A202E/M203V/INS205MKGGIRKDRRGGRMLKHKRQRDDGEGRGEVGSM): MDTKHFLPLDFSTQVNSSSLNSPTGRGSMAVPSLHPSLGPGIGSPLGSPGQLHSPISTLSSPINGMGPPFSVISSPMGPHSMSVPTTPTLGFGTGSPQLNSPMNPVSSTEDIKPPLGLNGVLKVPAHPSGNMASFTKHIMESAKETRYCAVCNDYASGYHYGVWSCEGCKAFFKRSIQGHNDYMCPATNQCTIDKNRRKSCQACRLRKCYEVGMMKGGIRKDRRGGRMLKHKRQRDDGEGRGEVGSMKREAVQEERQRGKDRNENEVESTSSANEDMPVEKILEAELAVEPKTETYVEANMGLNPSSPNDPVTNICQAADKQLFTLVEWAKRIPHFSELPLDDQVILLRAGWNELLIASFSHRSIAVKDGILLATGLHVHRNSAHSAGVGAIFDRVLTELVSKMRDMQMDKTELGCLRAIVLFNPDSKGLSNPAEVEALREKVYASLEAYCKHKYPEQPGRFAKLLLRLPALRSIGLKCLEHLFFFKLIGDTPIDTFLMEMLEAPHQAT
Description: (§1) Induction of the reporter was determined by measuring the specific activity of the URA3 gene product OMPdecase (see above).
Vector without insert was used as a control (“None”).

[2] = molecular target: T2, RARα1-ER.CAS (Homo sapiens, UniProt P10276, INS60IETQSSSSEEIVPSPPSPPPLPRIYKPCAVCNDYASGYHYGVWSCEGCKAFFKRSIQGHNDYMCPATNQCTIDKNRRKSCQACRLRKCYEVGMSKES)
T2 sequence (P10276 with tags, fused parts or gaps isoform P10276-3): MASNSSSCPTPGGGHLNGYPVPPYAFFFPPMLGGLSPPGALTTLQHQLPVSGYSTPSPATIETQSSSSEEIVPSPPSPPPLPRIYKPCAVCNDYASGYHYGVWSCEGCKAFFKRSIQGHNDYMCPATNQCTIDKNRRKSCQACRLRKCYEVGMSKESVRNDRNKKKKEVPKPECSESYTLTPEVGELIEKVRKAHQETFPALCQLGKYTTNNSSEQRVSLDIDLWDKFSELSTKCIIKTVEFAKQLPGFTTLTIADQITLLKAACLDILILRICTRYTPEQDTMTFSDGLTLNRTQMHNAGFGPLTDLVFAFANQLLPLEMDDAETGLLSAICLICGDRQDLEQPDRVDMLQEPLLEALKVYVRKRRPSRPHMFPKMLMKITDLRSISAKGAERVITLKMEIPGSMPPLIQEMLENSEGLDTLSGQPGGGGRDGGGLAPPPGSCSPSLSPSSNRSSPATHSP
Description: The 5′ prime flank of each construct contains a mammalian Kozak's sequence sandwiched between the EcoR1 and the translation start codon (5′-[…]-3′). […] PCR and site-directed mutagenesis were used to create RARα(DEF)-ER.CAS, RARα1(AB)-ER(C), RXRα(DE)-ER.CAS and RXRα(AB)-ER(C) as shown in FIG. 10a. All sequences generated by PCR or site directed mutagenesis were verified by sequencing. […] For transactivation experiments, transformants were grown exponentially for approximately 5 generations in selective medium […] uracil in the presence or absence of ligand, in conditions of diffuse light.
as §1
Vector without insert was used as a control (“None”). Transactivation data are expressed as OMPdecase activities; the mean values shown in the table were determined from duplicate assays with three individual transformants for each clone. The numbers in parentheses indicate the fold induction over the activity observed for each receptor in the absence of ligand.

[3] = system: None (vector without insert); experiment: 3ERE-URA3 reporter in yeast strain PL3, vector without insert (control "None"); assay type: cell-based; settings: no receptor, yeast PL3, in presence of ligand
[4] = molecular target: T3, RARα (Homo sapiens, UniProt P10276); experiment: URA3 reporter (DR5 etc.) transactivation in yeast strain YPH250 (OMPdecase activity); assay type: cell-based; settings: RARα alone, ligand 5×10^−7 M (500 nM)
T3 construct: The human RARα1 (aa 1-462); expressed in transfected cells; host or cells: Saccharomyces cerevisiae YPH250 (YEp10/YEp90)
T3 sequence (P10276 1-462): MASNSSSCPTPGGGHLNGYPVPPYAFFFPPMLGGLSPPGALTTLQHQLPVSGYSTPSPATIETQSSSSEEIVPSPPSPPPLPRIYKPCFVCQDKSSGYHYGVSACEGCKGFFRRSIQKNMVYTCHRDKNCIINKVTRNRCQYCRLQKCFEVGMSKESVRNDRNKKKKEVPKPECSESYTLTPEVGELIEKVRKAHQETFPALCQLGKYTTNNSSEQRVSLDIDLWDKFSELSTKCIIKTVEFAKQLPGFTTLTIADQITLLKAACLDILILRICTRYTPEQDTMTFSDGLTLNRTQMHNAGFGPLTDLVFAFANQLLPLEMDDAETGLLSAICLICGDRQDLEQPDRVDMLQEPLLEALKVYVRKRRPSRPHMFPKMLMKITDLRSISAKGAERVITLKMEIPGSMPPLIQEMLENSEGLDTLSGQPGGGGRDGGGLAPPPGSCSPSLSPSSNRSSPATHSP

[5] = molecular target: T4, hRAR-γ binding to β-RARE (Homo sapiens, UniProt P13631); experiment: Gel retardation assay of RAR binding to β-RARE (RBF complementation); settings: with HeLa cell NE
T4 construct: fused to the amino terminal amino acid of full length hRAR-γ; 14 amino acids from the parental vector pEt3a (bacterially expressed preparation only) (N); made in house; host or cells: E. coli BL21 (DE3) plysS; also rVV-infected HeLa cells, rBV-infected Sf9 cells, yeast (ubiquitin fusion) and rabbit reticulocyte lysate
T4 sequence (P13631 1-454): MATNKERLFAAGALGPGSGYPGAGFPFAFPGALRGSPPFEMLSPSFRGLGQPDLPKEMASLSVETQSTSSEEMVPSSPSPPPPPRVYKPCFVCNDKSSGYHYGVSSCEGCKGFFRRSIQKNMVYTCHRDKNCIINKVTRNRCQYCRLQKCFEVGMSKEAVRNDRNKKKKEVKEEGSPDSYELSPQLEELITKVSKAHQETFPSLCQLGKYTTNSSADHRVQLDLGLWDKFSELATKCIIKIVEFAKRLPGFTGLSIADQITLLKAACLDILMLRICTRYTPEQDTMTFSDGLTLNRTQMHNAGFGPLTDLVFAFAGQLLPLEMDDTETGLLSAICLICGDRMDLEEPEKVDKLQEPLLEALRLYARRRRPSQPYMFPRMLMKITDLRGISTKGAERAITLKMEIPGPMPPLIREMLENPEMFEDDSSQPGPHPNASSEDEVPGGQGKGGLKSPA
T4 sequence (P28702 1-533 partner): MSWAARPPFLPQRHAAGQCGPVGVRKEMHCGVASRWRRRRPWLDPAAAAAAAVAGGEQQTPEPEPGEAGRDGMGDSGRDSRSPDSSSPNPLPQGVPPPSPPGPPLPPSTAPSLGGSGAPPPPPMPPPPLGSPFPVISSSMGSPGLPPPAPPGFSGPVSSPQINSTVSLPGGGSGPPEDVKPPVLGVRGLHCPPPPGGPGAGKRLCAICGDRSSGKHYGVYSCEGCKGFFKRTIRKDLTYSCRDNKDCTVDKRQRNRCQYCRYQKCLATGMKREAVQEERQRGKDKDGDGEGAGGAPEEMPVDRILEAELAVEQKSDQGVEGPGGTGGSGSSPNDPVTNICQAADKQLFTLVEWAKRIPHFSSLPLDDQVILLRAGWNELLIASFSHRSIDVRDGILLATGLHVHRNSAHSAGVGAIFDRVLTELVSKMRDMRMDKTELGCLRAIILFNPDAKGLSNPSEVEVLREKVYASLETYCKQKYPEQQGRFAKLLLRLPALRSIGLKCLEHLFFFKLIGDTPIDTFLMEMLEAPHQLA
Description: For gel retardation experiments comparing RAR and RXR subtypes and deletion mutants, all proteins were produced by in vitro translation in the presence of [^35S]methionine.
Purification of rVV- and rBV-expressed hRAR-γ is being described elsewhere (Chen et al., manuscript in preparation). […] All steps were carried out at 4° C. and RBF activity was monitored through all purification steps by a complementation gel retardation assay using bacterially-expressed hRAR-γ as described above. […] The column was washed with equilibration buffer until the A280 of the eluent returned to baseline. […] The column was washed with equilibration buffer until the A280 of the eluent returned to baseline and then with 4 column volumes of buffer A containing 0.45 M ammonium sulfate and 50 mM KCl. The column was then eluted with an 18 ml linear gradient from 0.45 to 0 M ammonium sulfate in buffer A containing 50 mM KCl.

[6] = system: RARα and RXRα homodimers or heterodimers
[7] = FIG. 10b dose response, FIG. 10c ligand 10^−6 M

**Q.** With CC1=C(/C=C/C(C)=C/C=C/C(C)=C/C(=O)O)C(C)(C)CC=C1 [T-ddRA, all-trans 3,4-didehydroretinoic acid] as the compound, how does the “conversion to 9-cis stereoisomers in yeast” value ([1]; inferred from lack of RXRα-ER(C) activation) read?
**A.** not significantly converted

**Q.** With CC1=C(/C=C/C(C)=C/C=C/C(C)=C/C(=O)O)C(C)(C)CCC1 [T-RA, all-trans retinoic acid] as the compound, how does the “OMP decase activity units” value ([2]; 3ERE-URA3 reporter, yeast PL3, in presence of ligand) read?
**A.** 14.70 units

**Q.** What about the “stimulation of transactivation by RARα1-ER.CAS” value [2, 7] of the same compound?
**A.** comparably stimulated

**Q.** And the “OMP decase activity units” value [3]?
**A.** 0.02 units

**Q.** What about the “induction of OMPdecase activity, DR5-URA3 reporter” value [4] of the same compound?
**A.** approx. 5 fold

**Q.** What about the “effect on formation of the hRAR-γ/β-RARE complex” value [5] of the same compound?
**A.** In no case was the formation of the complex affected

**Q.** What about the “effect on binding of homodimers or heterodimers to the probes” value [6] of the same compound?
**A.** did not further stimulate

**Q.** CC1=C(/C=C/C(C)=C\C=C\C(C)=C\C(=O)O)C(C)(C)CC=C1 [9C-ddRA, 9-cis 3,4-didehydroretinoic acid] was tested. Which “induction of activation by RXRα-ER(C)” value [1, 7] did it give?
**A.** induced

**Q.** What does the source list for CC1=C(/C=C/C(C)=C\C=C\C(C)=C\C(=O)O)C(C)(C)CCC1 [9C-RA, 9-cis retinoic acid]?
**A.** OMP decase activity units [3]: 0.02 units; effect on binding of homodimers or heterodimers to the probes [6]: did not further stimulate
